The values below come from US20260224533A1, “CRYSTALLINE NANOPARTICLES COMPRISING ENZALUTAMIDE” (HELM PHARMACEUTICALS GMBH, priority 2023, published 2026).

The nature of series [1]: Kinetic solubility of Enzalutamide in simulated fluids. It counts as physicochemical. To be noted: kinetic from dmso stock, 37° C. An excerpt: Preferably, the content of the amorphous nanosized Enzalutamide in the slurry or suspension is at least 10 times higher, more preferably at least 50 times, still more preferably at least 100 times higher, even more preferably at least 500 times higher than its solubility in the liquid, preferably aqueous solution, comprising the one or more polymers and/or copolymers to form the suspension or the slurry. Accordingly, the amount of Enzalutamide amorphous nanoparticles provided in step (a) that is needed depends on its solubility. The solubility can be measured by any method known in the art. […] A decent slurry can thus be produced when the slurry or suspension comprises e.g. 5 mg of the amorphous nanoparticles provided in step (a) in 1 mL of the slurry or suspension.

The conditions of series [2]: cited from earlier work.

Usually solubility (kinetic) stands for solubility judged after dilution from a stock solution rather than from solid.

In brackets after ≈: the same amount, converted by molar mass.

`CNC(=O)c1ccc(N2C(=S)N(c3ccc(C#N)c(C(F)(F)F)c3)C(=O)C2(C)C)cc1F` [Enzalutamide]: the kinetic solubility in series [1] (Fasted State Simulated Intestinal Fluid (FaSSIF)) was approximately 74 µg/mL (≈ 159 µM); in series [1] (Simulated Gastric Fluid (SGF)) it was approximately 50 µg/mL (≈ 108 µM). Also, the solubility in water entry in series [2] is “insoluble”.
